Laboratory results from patent US9006450B2 (Boehringer Ingelheim International GmbH, priority 2010, dated 2015).

biological target: T1, human ACC2 (Homo sapiens, UniProt O00763); experiment: ACC2 assay, spectrophotometric 384 well assay (NADH-linked, coupled lactate dehydrogenase/pyruvate kinase); type: biochemical; conditions: ACC2 assay, hACC2 construct lacking 128 N-terminal amino acids, 25° C., 340 nm; read-out: IC50
T1 construct: made in house; host or cells: insect cells (baculoviral expression system)
Method in brief: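 ADP output tracked via pyruvate kinase/lactate dehydrogenase NADH oxidation, slope at 340 nm over 15 min, 25° C, with 500 μM ATP and 200 μM each acetyl-CoA and NADH. Enzyme: insect-cell-expressed human ACC2, N-terminal 128 residues deleted; pH 7.5 Tris with citrate, KHCO3. IC50 from four-parameter regression versus vehicle and no-acetyl-CoA controls.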

T1 sequence (O00763 129-2458 limits assumed): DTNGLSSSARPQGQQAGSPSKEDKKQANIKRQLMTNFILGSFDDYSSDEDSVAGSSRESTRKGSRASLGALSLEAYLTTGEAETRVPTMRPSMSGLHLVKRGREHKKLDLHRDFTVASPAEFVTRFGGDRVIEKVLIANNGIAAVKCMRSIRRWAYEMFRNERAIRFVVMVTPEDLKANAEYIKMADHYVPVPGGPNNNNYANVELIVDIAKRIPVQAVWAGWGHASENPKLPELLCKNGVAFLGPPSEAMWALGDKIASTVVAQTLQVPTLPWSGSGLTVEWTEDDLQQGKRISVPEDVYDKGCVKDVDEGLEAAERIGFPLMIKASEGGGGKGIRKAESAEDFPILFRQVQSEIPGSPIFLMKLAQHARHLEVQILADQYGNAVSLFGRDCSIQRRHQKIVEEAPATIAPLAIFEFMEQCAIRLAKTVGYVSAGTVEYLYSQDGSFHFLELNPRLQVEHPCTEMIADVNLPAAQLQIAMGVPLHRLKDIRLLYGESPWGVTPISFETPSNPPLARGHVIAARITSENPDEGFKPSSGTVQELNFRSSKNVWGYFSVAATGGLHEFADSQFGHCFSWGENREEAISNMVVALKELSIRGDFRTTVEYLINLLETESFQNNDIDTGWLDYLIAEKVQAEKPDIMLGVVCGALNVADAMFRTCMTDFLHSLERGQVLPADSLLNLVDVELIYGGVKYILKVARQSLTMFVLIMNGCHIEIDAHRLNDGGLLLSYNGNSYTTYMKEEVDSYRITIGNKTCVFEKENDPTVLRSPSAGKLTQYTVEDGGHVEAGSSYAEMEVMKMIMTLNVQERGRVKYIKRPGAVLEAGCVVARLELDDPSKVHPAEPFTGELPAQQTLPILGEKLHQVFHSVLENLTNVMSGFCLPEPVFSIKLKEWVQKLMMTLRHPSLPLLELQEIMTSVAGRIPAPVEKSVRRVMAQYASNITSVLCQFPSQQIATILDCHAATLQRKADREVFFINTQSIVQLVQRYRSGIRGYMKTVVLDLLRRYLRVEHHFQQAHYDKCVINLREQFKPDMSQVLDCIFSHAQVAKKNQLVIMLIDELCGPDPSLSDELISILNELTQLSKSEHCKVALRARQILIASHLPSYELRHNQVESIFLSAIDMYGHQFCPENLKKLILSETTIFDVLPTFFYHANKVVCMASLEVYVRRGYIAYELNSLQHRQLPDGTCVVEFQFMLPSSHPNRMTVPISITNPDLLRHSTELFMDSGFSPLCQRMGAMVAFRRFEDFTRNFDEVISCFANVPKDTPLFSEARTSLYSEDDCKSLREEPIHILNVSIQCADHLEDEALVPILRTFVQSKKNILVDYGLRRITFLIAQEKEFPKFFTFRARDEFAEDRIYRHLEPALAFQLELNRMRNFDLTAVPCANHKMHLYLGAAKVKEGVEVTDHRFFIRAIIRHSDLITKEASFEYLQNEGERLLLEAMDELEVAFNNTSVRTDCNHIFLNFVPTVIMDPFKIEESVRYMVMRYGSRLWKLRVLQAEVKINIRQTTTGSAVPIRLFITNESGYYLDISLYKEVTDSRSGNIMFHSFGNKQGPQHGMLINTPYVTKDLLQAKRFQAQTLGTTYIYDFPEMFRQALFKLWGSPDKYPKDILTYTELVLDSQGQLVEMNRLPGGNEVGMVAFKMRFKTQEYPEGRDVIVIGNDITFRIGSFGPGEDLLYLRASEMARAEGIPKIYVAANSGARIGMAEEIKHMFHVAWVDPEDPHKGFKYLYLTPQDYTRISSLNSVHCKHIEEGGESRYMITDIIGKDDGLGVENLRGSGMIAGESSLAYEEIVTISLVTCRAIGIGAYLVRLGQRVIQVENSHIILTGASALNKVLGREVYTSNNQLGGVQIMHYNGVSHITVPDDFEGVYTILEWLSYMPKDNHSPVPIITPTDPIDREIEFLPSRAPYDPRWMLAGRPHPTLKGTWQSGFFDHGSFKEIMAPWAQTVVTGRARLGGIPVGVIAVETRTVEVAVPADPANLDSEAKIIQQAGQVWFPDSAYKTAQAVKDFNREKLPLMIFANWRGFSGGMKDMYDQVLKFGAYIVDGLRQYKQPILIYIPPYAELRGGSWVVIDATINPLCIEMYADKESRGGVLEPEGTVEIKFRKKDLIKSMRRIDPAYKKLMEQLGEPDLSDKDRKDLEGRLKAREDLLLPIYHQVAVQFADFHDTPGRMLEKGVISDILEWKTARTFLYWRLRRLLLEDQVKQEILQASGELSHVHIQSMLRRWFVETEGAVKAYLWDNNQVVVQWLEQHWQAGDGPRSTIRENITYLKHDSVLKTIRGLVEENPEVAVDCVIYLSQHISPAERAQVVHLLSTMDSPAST

SMILES | IC50
C[C@H](NC(=O)C1CC1)c1ccc(C2CCN(c3nc(N(C)CC4CC4)ncc3F)CC2)cc1 [Example 11.125] | 340 nM
C[C@H](NC(=O)C1CC1)c1ccc(C2CCN(c3nc(N(C)CC4CC4)ncc3C#N)CC2)cc1 [Example 11.126] | 810 nM
C[C@H](NC(=O)C1CC1)c1ccc(C2CCN(c3ncc(C#N)c(N(C)CC4CC4)n3)CC2)cc1 [Example 11.127] | 3500 nM
C[C@H](NC(=O)C1CC1)c1ccc(C2CCN(c3ncnc(N(C)CC4CC4)c3F)CC2)cc1 [Example 11.128] | 410 nM
CC(C)Oc1ncc(F)c(N2CCC(c3ccc([C@H](C)NC(=O)C4CC4)cc3)CC2)n1 [Example 11.129] | 1300 nM
CC(C)Oc1ncnc(N2CCC(c3ccc([C@H](C)NC(=O)C4CC4)cc3)CC2)c1F [Example 11.130] | 370 nM
CC(=O)N[C@@H](C)c1ccc(C2CCN(c3ccnc(OCC4CC4)n3)CC2)cc1 [Example 11.131] | 1100 nM
CC(=O)N[C@@H](C)c1ccc(C2CCN(c3cc(NC4CC4)ncn3)CC2)cc1 [Example 11.132] | 3000 nM
CC(=O)NC(C)Cc1ccc(C2CCN(c3ccnc(N(C)C4CCCC4)n3)CC2)cc1 (stereo not drawn) [Example 12.1, N-[2-(4-{1-[2-(Cyclopentyl-methyl-amino)-pyrimidin-4-yl]-piperidin-4-yl}-phenyl)-1-methyl-ethyl]-acetamide] | 610 nM
CCCOc1ccc(N2CCC(c3ccc([C@H](C)NC(C)=O)cc3)CC2)c(C#N)c1 [Example 13.1, (S)—N-(1-{4-[1-(2-Cyano-4-propoxy-phenyl)-piperidin-4-yl]-phenyl}-ethyl)-acetamide] | 90 nM
CC(=O)N[C@@H](C)c1ccc(C2CCN(c3ccc(OCC4CC4)cc3C#N)CC2)cc1 [Example 13.2] | 130 nM
CCOc1ccc(N2CCC(c3ccc([C@H](C)NC(C)=O)cc3)CC2)c(C#N)c1 [Example 13.3] | 170 nM
CCOc1ccc(N2CCC(c3ccc([C@H](C)NC(=O)NC)cc3)CC2)cc1 [Example 14.1, (S)-1-(1-{4-[1-(4-Ethoxy-phenyl)-piperidin-4-yl]-phenyl}-ethyl)-3-methyl-urea] | 470 nM
CCNC(=O)N[C@@H](C)c1ccc(C2CCN(c3ccc(OCC)cc3)CC2)cc1 [Example 14.2] | 2700 nM
CCOc1ccc(N2CCC(c3ccc([C@H](C)NC(=O)NC4CC4)cc3)CC2)cc1 [Example 14.3] | 1400 nM
CCOc1ccc(N2CCC(c3ccc([C@H](C)NC(N)=O)cc3)CC2)cc1 [Example 14.5] | 1700 nM
CCOc1ccc(N2CCC(c3ccc([C@H](C)NC(=O)N(C)C4CC4)cc3)CC2)cc1 [Example 14.50, (S)-1-Cyclopropyl-3-(1-{4-[1-(4-ethoxy-phenyl)-piperidin-4-yl]-phenyl}-ethyl)-1-methylurea] | 3800 nM
CCOc1ccc(N2CCC(c3ccc([C@H](C)NC(=O)N(C)CC)cc3)CC2)cc1 [Example 14.51] | 610 nM
CCOc1ccc(N2CCC(c3ccc([C@H](C)NC(=O)N(C)C(C)C)cc3)CC2)cc1 [Example 14.53] | 4900 nM
CCCN(C)C(=O)N[C@@H](C)c1ccc(C2CCN(c3ccc(OCC)cc3)CC2)cc1 [Example 14.54] | 1100 nM
CCOc1ccc(N2CCC(c3ccc([C@H](C)NC(=O)Nc4cccnc4)cc3)CC2)cc1 [Example 14.55] | 1700 nM
CCOc1ccc(N2CCC(c3ccc([C@H](C)NC(=O)Nc4ncccn4)cc3)CC2)cc1 [Example 14.56] | 14700 nM
CCOc1ccc(N2CCC(c3ccc([C@H](C)NC(=O)Nc4nccs4)cc3)CC2)cc1 [Example 14.57] | 14200 nM

SMILES | IC50
CCOc1ccc(N2CCC(c3ccc([C@H](C)NC(=O)Nc4ccnnc4)cc3)CC2)cc1 [Example 14.58] | 7100 nM
CCOc1ccc(N2CCC(c3ccc([C@H](C)NC(=O)Nc4cncnc4)cc3)CC2)cc1 [Example 14.59] | 1500 nM
CCOc1ccc(N2CCC(c3ccc([C@H](C)NC(=O)NCc4ccncn4)cc3)CC2)cc1 [Example 14.60] | 2100 nM
CCOc1ccc(N2CCC(c3ccc([C@H](C)NC(=O)N(C)CCc4cn[nH]c4)cc3)CC2)cc1 [Example 14.61] | 530 nM
CCOc1ccc(N2CCC(c3ccc([C@H](C)NC(=O)NCc4cncnc4)cc3)CC2)cc1 [Example 14.62] | 13300 nM
CCOc1ccc(N2CCC(c3ccc([C@H](C)NC(=O)N4CCOCC4)cc3)CC2)cc1 [Example 14.63] | 1600 nM
CCOc1ccc(N2CCC(c3ccc([C@H](C)NC(=O)N(C)Cc4ccn(C)n4)cc3)CC2)cc1 [Example 14.64] | 3800 nM
CCOc1ccc(N2CCC(c3ccc([C@H](C)NC(=O)N(C)CC4CC4)cc3)CC2)cc1 [Example 14.65] | 3700 nM
CCOc1ccc(N2CCC(c3ccc([C@H](C)NC(=O)N4CCC4)cc3)CC2)cc1 [Example 14.66] | 2200 nM
CCOc1ccc(N2CCC(c3ccc([C@H](C)NC(=O)N(CC)CC)cc3)CC2)cc1 [Example 14.67] | 1900 nM
CCOc1ccc(N2CCC(c3ccc([C@H](C)NC(=O)N4CCCC4)cc3)CC2)cc1 [Example 14.68] | 7800 nM
CCOc1ccc(N2CCC(c3ccc([C@H](C)NC(=O)N4CCCCC4)cc3)CC2)cc1 [Example 14.69] | 12100 nM
CCOc1ccc(N2CCC(c3ccc([C@H](C)NC(=O)Nc4ccon4)cc3)CC2)cc1 [Example 14.70] | 790 nM
COC(=O)Cc1ccc(N2CCC(c3ccc([C@H](C)NC(C)=O)cc3)CC2)cc1 [Example 15.1, (S)-(4-{4-[4-(1-Acetylamino-ethyl)-phenyl]-piperidin-1-yl}-phenyl)-acetic acid methyl ester] | 2800 nM
COC(=O)c1cccc(N2CCC(c3ccc([C@H](C)NC(C)=O)cc3)CC2)c1 [Example 15.2] | 350 nM
CC(=O)N[C@@H](C)c1ccc(C2CCN(c3ccnc(OCc4ccccc4)c3)CC2)cc1 [Example 15.3] | 200 nM
CC(=O)N[C@@H](C)c1ccc(C2CCN(c3ccc(C)nc3)CC2)cc1 [Example 15.5] | 17700 nM
CC(=O)N[C@@H](C)c1ccc(C2CCN(c3ccc4oc(C(C)C)nc4c3)CC2)cc1 [Example 15.6] | 260 nM
COCc1nc2cc(N3CCC(c4ccc([C@H](C)NC(C)=O)cc4)CC3)ccc2o1 [Example 15.7] | 1500 nM
CC(=O)N[C@@H](C)c1ccc(C2CCN(c3ccc(C(F)(F)F)nc3)CC2)cc1 [Example 15.8] | 8400 nM
COc1cncc(N2CCC(c3ccc([C@H](C)NC(C)=O)cc3)CC2)c1 [Example 15.9] | 19900 nM
CC(=O)N[C@@H](C)c1ccc(C2CCN(c3cnccc3C)CC2)cc1 [Example 15.10] | 3200 nM
CC(=O)N[C@@H](C)c1ccc(C2CCN(c3ccc(-c4cccs4)nc3)CC2)cc1 [Example 15.11] | 160 nM

SMILES | IC50
CC(=O)N[C@@H](C)c1ccc(C2CCN(c3ccc(C(C)(C)C)nc3)CC2)cc1 [Example 15.12] | 2200 nM
CC(=O)N[C@@H](C)c1ccc(C2CCN(c3ccc4oc(C)nc4c3)CC2)cc1 [Example 15.13] | 970 nM
CC(=O)N[C@@H](C)c1ccc(C2CCN(c3ccc4oc(C5CC5)nc4c3)CC2)cc1 [Example 15.14] | 880 nM
CC(=O)N[C@@H](C)c1ccc(C2CCN(c3ccc4nc(C)oc4c3)CC2)cc1 [Example 15.15] | 990 nM
CCOC(=O)c1cc2cc(N3CCC(c4ccc([C@H](C)NC(C)=O)cc4)CC3)ccc2o1 [Example 15.17] | 300 nM
CCOc1ccc(N2CCC(c3ccc([C@H](C)NC(=O)OC)cc3)CC2)c(C#N)c1 [Example 15.18] | 330 nM
CCC(NC(C)=O)c1ccc(C2CCN(c3ccnc(Oc4ccccc4)c3)CC2)cc1 (stereo not drawn) [Example 15.19] | 3900 nM
CCCOc1ccc(N2CCC(c3ccc(C(CC)NC(C)=O)cc3)CC2)c(OC)c1 (stereo not drawn) [Example 15.20] | 3900 nM
CCC(NC(C)=O)c1ccc(C2CCN(c3ccc(OCC(C)C)cc3)CC2)cc1 (stereo not drawn) [Example 15.21] | 1200 nM
CCCOc1ccc(N2CCC(c3ccc([C@@H](C)NC(C)=O)cc3)CC2)c(OC)c1 [Example 15.23] | 6400 nM
CCOc1ncc(N2CCC(c3ccc([C@H](C)NC(C)=O)cc3)CC2)cn1 [Example 16.1, (S)—N-(1-M{4-[1-(2-Ethoxy-pyrimidin-5-yl)-piperidin-4-yl]-phenyl}-ethyl)-acetamide] | 1400 nM
COc1ncc(N2CCC(c3ccc([C@H](C)NC(C)=O)cc3)CC2)cn1 [Example 16.2] | 4800 nM
CCNc1ncc(N2CCC(c3ccc([C@H](C)NC(C)=O)cc3)CC2)cn1 [Example 16.4] | 620 nM
CC(=O)N[C@@H](C)c1ccc(C2CCN(c3cnc(OCC4CC4)nc3)CC2)cc1 [Example 16.5] | 2500 nM
C[C@H](NC(=O)N(C)C)c1ccc(C2CCN(c3cnc(OCC4CC4)nc3)CC2)cc1 [Example 16.6] | 450 nM
CCOc1ncc(N2CCC(c3ccc([C@H](C)NC(=O)N(C)C)cc3)CC2)cn1 [Example 16.7] | 1400 nM
CCOc1ncc(N2CCC(c3ccc([C@H](C)NC(=O)C4CC4)cc3)CC2)cn1 [Example 16.8] | 3900 nM
C[C@H](NC(=O)C1CC1)c1ccc(C2CCN(c3cnc(NCC4CC4)nc3)CC2)cc1 [Example 16.9] | 6700 nM
CCOc1ncc(N2CCC(c3ccc([C@H](C)NC(C)=O)cc3)CC2)c(OC)n1 [Example 16.10] | 930 nM
COc1nc(OCC2CC2)ncc1N1CCC(c2ccc([C@H](C)NC(C)=O)cc2)CC1 [Example 16.11] | 1300 nM
CCOc1ccc(N2CCC(c3ccc([C@H](C)NS(C)(=O)=O)cc3)CC2)cc1 [Example 17.1, (S)—N-(1-{4-[1-(4-Ethoxy-phenyl)-piperidin-4-yl]-phenyl}-ethyl)-methanesulfonamide] | 2900 nM
CCOc1ccc(N2CCC(c3ccc([C@H](C)NS(=O)(=O)CC)cc3)CC2)cc1 [Example 17.2] | 4200 nM
CCOc1ccc(N2CCC(c3ccc([C@H](C)NS(=O)(=O)C4CCC4)cc3)CC2)cc1 [Example 17.3] | 7500 nM
